Experimental data reported in patent US20070082915A1 (priority 2003, published 2007).
Read-outs that look alike come from different tables or passages of the source.

Tested on: Pyricularia oryzae
Format: in vivo
Details: individual active compound, protective spray, inoculated next day, rated after 6 days

SMILES | Efficacy in % of the untreated control (1 ppm in the spray liquor) [%] | Efficacy in % of the untreated control (4 ppm in the spray liquor) [%]
CC1CCN(c2c(-c3c(F)cccc3Cl)c(Cl)nc3ncnn23)CC1 [A] | 0 | 11
CC(Nc1c(-c2c(F)cc(F)cc2F)c(Cl)nc2ncnn12)C(F)(F)F (centres unmarked) [B] | 11 | 33
CC1CCN(c2c(-c3c(F)cc(F)cc3F)c(Cl)nc3ncnn23)CC1 [I, 5-chloro-7-(4-methylpiperidin-1-yl)-6-(2,4,6-trifluorophenyl)-[1,2,4]triazolo[1,5-a]pyrimidine] | 11 | 33
CCCC1COC(Cn2cncn2)(c2ccc(Cl)cc2Cl)O1 (centres unmarked) [II, 1-[2-(2,4-dichlorophenyl)-4-propyl-[1,3]dioxolan-2-ylmethyl]-1H-[1,2,4]triazole] | 0 | 0
